The target of assay [1] is T1, Furin (108-574-Tev-Flag-His) enzyme (Homo sapiens, UniProt P09958).
T1 construct: Furin (108-574-Tev-Flag-His) enzyme was expressed and purified from CHO cells; TEV cleavage site (C); FLAG (C); His (C); made in house; host or cells: CHO cells
Description: Furin enzyme assay. The class given is biochemical. The procedure, abridged:
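CHO-expressed, purified furin construct at 40 pM in 100 mM HEPES pH7.5, 1 mM CaCl2, 0.005% Triton X-100. Eleven-point 1:3 series, 0.00017–10 μM final, incubated 2 h at room temperature and read on Envision. pXC50 from four-parameter fit.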

The target of assay [2] is T2, furin (endogenous protease) in U20S cells (Homo sapiens, UniProt P09958).
T2 construct: the endogenous protease cleaves GFP; endogenous in cells; host or cells: U2OS cells transduced with a BacMam reporter
Description: Furin cell-based assay (image-based, Golgi-targeted GFP with BMP10 furin/PCSK cleavage site).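 Note: Read-out is mean GFP fluorescence of Golgi puncta per cell by high-content imaging, retained when furin inhibited, over an eleven-point 0.00017–10 µM series, four-parameter fit.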 The conditions noted are these: 24-hour incubation, read-out: furin golgi cell pXC50 (converted).

T2 sequence (P09958 108-794): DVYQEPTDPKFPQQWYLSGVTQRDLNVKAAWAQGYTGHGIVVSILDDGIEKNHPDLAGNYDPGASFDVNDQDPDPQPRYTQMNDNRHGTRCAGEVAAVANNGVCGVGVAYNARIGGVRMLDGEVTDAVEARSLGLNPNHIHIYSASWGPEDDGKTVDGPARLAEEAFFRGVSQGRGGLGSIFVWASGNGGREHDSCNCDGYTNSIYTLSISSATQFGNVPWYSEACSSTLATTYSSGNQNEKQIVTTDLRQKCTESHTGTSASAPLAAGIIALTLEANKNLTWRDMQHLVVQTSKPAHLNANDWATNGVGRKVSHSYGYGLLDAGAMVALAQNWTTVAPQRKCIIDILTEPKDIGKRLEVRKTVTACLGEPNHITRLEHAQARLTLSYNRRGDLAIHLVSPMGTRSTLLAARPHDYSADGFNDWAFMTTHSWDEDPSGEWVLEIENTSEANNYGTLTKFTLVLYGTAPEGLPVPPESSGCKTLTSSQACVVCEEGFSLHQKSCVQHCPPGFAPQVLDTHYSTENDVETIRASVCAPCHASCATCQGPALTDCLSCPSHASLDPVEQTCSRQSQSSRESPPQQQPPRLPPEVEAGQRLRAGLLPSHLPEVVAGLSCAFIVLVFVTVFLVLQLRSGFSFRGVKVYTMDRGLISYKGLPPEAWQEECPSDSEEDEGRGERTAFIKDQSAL
T1 sequence (P09958 108-574): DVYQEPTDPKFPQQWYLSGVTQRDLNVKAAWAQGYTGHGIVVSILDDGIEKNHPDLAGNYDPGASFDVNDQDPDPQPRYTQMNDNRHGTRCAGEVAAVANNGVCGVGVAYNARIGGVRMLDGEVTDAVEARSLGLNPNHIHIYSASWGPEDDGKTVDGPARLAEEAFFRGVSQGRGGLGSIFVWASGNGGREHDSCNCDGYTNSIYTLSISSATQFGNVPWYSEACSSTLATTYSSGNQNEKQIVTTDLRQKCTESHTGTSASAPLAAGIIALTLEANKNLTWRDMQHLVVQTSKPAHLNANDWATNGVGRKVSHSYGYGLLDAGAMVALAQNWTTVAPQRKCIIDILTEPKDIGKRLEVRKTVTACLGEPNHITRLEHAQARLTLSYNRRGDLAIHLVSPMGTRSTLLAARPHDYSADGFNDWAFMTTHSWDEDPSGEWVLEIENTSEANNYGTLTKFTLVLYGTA

`CC(=O)NCC1CCN(Cc2cc(Oc3ccc(N4CCCN(CCC(=O)O)CC4)nc3)nc(-c3cc(Cl)cc(Cl)c3)c2)CC1` [Example 190, 3-(4-(5-((4-((4-(Acetamidomethyl)piperidin-1-yl)methyl)-6-(3,5-dichlorophenyl)pyridin-2-yl)oxy)pyridin-2-yl)-1,4-diazepan-1-yl)propanoic acid]: in assay [1], the “furin enzyme pIC50” value turned out to be 10.7. Besides, in assay [2], the EC50 was 158 nM.
In the case of `CC(=O)NCC1CCN(Cc2cc(Oc3ccc(N4CCN(CCC(=O)O)C(C)(C)C4)nc3)nc(-c3cc(Cl)cc(Cl)c3)c2)CC1` [Example 191, 3-(4-(5-((4-((4-(acetamidomethyl)piperidin-1-yl)methyl)-6-(3,5-dichlorophenyl)pyridin-2-yl)oxy)pyridin-2-yl)-2,2-dimethylpiperazin-1-yl)propanoic acid], the “furin enzyme pIC50” value in assay [1] is 9.8. In addition, the EC50 in assay [2] is 39.8 nM.
On the same counts, the results for `CC(=O)NCC1CCN(Cc2cc(Oc3ccc(N4CCCNCC4)nc3)nc(-c3cc(Cl)cc(Cl)c3)c2)CC1` [Example 192, N-((1-((2-((6-(1,4-diazepan-1-yl)pyridin-3-yl)oxy)-6-(3,5-dichlorophenyl)pyridin-4-yl)methyl)piperidin-4-yl)methyl)acetamide] are 10.4 and 15.8 nM.
As to `CNC1CCN(c2ccc(Oc3cc(CN4CCC(CNC(C)=O)CC4)cc(-c4cc(Cl)cc(Cl)c4)n3)cn2)CC1` [Example 193, N-((1-((2-(3,5-dichlorophenyl)-6-((6-(4-(methylamino)piperidin-1-yl)pyridin-3-yl)oxy)pyridin-4-yl)methyl)piperidin-4-yl)methyl)acetamide], the “furin enzyme pIC50” value in assay [1] is 9. Moreover, in assay [2], the EC50 was 3.16 nM.
On the same counts, the results for `CC(=O)NCC1CCN(Cc2cc(Oc3ccc(N4CC5CNCC5C4)nc3)nc(-c3cc(Cl)cc(Cl)c3)c2)CC1` (centres unmarked) [Example 194, N-((1-((2-(3,5-dichlorophenyl)-6-((6-(hexahydropyrrolo[3,4-c]pyrrol-2(1H)-yl)pyridin-3-yl)oxy)pyridin-4-yl)methyl)piperidin-4-yl)methyl)acetamide] are 9.1 and 3.16 nM.
`CC(=O)NCC1CCN(Cc2cc(Oc3ccc(N4CCNC(CO)C4)nc3)nc(-c3cc(Cl)cc(Cl)c3)c2)CC1` (centres unmarked) [Example 195, N-((1-((2-(3,5-dichlorophenyl)-6-((6-(3-(hydroxymethyl)piperazin-1-yl)pyridin-3-yl)oxy)pyridin-4-yl)methyl)piperidin-4-yl)methyl)acetamide]: the “furin enzyme pIC50” value in assay [1] came out at 9.2. The EC50 in assay [2] is 1 nM.
For `CC(=O)NCC1CCN(Cc2cc(Oc3ccc(N4CCNC(C)(C)C4)nc3)nc(-c3cc(Cl)cc(Cl)c3)c2)CC1` [Example 197, N-((1-((2-(3,5-dichlorophenyl)-6-((6-(3,3-dimethylpiperazin-1-yl)pyridin-3-yl)oxy)pyridin-4-yl)methyl)piperidin-4-yl)methyl)acetamide], in that order: 9.2 and 2 nM.
On the same counts, the results for `CC(=O)NCC1CCN(Cc2cc(Oc3ccc(N4CCC(N)C(C)(C)C4)nc3)nc(-c3cc(Cl)cc(Cl)c3)c2)CC1` (centres unmarked) [Example 198, N-((1-((2-((6-(4-amino-3,3-dimethylpiperidin-1-yl)pyridin-3-yl)oxy)-6-(3,5-dichlorophenyl)pyridin-4-yl)methyl)piperidin-4-yl)methyl)acetamide] are 9.3 and 2 nM.
As to `CC(=O)NCC1CCN(Cc2cc(Oc3ccc(N4CCC5(CCNC5)C4)nc3)nc(-c3cc(Cl)cc(Cl)c3)c2)CC1` (centres unmarked) [Example 199, N-((1-((2-((6-(2,7-diazaspiro[4.4]nonan-2-yl)pyridin-3-yl)oxy)-6-(3,5-dichlorophenyl)pyridin-4-yl)methyl)piperidin-4-yl)methyl)acetamide], in assay [1], the “furin enzyme pIC50” value turned out to be 9.2. In addition, the EC50 in assay [2] is 5.01 nM.
For `CC(=O)NCC1CCN(Cc2cc(Oc3ccc(N4CCN(C)CC4)nc3)nc(-c3cc(Cl)cc(Cl)c3)c2)CC1` [Example 200, N-((1-((2-(3,5-dichlorophenyl)-6-((6-(4-methylpiperazin-1-yl)pyridin-3-yl)oxy)pyridin-4-yl)methyl)piperidin-4-yl)methyl)acetamide], the “furin enzyme pIC50” value in assay [1] is listed as 9.1. The EC50 in assay [2] was 0.501 nM.
On the same counts, the results for `CNCc1cc(Oc2ccc(N3CC4CNCC4C3)nc2)cc(-c2cc(Cl)cc(Cl)c2)c1` (centres unmarked) [Example 201, 1-(3′,5′-dichloro-5-((6-(hexahydropyrrolo[3,4-c]pyrrol-2(1H)-yl)pyridin-3-yl)oxy)-[1,1′-biphenyl]-3-yl)-N-methylmethanamine] are 9.4 and 20 nM.
For `CNCc1cc(Oc2ccc(N3C[C@@H]4C[C@H]3CN4)nc2)cc(-c2cc(Cl)cc(Cl)c2)c1` [Example 202, 1-(5-((6-((1S,4S)-2,5-diazabicyclo[2.2.1]heptan-2-yl)pyridin-3-yl)oxy)-3′,5′-dichloro-[1,1′-biphenyl]-3-yl)-N-methylmethanamine], in that order: 8.6 and 39.8 nM.
For `CN1C[C@@H]2C[C@H]1CN2c1ccc(Oc2cc(CN3CCC(CC(=O)O)CC3)cc(-c3cc(Cl)cc(Cl)c3)n2)cn1` [Example 203, 2-(1-((2-(3,5-dichlorophenyl)-6-((6-((1S,4S)-5-methyl-2,5-diazabicyclo[2.2.1]heptan-2-yl)pyridin-3-yl)oxy)pyridin-4-yl)methyl)piperidin-4-yl)acetic acid], in that order: 8.7 and 12.6 nM.
As for `CC(CCN1CCN(c2ncc(Oc3cc(CN4CCC(CC(=O)O)CC4)cc(-c4cc(Cl)cc(Cl)c4)n3)cn2)CC1)[S+](C)[O-]` (centres unmarked) [Example 204, 2-(1-((2-(3,5-Dichlorophenyl)-6-((2-(4-(3-(methylsulfinyl)butyl)piperazin-1-yl)pyrimidin-5-yl)oxy)pyridin-4-yl)methyl)piperidin-4-yl)acetic acid], the “furin enzyme pIC50” value in assay [1] is on record as 8.7. The EC50 in assay [2] was 31.6 nM.
For `CC(CCN1CCN(c2ncc(Oc3cc(CN4CCC(CC(=O)O)CC4)cc(-c4cc(Cl)cc(Cl)c4)n3)cn2)CC1)S(C)(=O)=O` (centres unmarked) [Example 205, 2-(1-((2-(3,5-Dichlorophenyl)-6-((2-(4-(3-(methylsulfonyl)butyl)piperazin-1-yl)pyrimidin-5-yl)oxy)pyridin-4-yl)methyl)piperidin-4-yl)acetic acid], in that order: 8.6 and 15.8 nM.
In the case of `CNC(=O)OCC1CCN(Cc2cc(Oc3cnc(N4CCN(C(C)CCC(=O)O)CC4)nc3)nc(-c3cc(Cl)cc(Cl)c3)c2)CC1` (centres unmarked) [Example 208], the IC50 in assay [1] (read-out: furin enzyme pIC50 (converted)) was 0.0126 nM. For the same compound, the EC50 in assay [2] is 10 nM.
With `CNC(=O)OCC1CCN(Cc2cc(Oc3cnc(N4CCN(C(C)CCO)CC4)nc3)nc(-c3cc(Cl)cc(Cl)c3)c2)CC1` (centres unmarked) [Example 209, (1-((2-(3,5-dichlorophenyl)-6-((2-(4-(4-hydroxybutan-2-yl)piperazin-1-yl)pyrimidin-5-yl)oxy)pyridin-4-yl)methyl)piperidin-4-yl)methyl methylcarbamate], in assay [1], the “furin enzyme pIC50” value was found to be 9.6. The EC50 in assay [2] is 2.51 nM.
For `CNC(=O)OCC1CCN(Cc2cc(Oc3cnc(N4CCN(CCCS(C)(=O)=O)CC4)nc3)nc(-c3cc(Cl)cc(Cl)c3)c2)CC1` [Example 210, (1-((2-(3,5-dichlorophenyl)-6-((2-(4-(3-(methylsulfonyl)propyl)piperazin-1-yl)pyrimidin-5-yl)oxy)pyridin-4-yl)methyl)piperidin-4-yl)methyl methylcarbamate], in that order: 8.7 and 3.98 nM.
On the same counts, the results for `CNC(=O)OCC1CCN(Cc2cc(Oc3cnc(N4CCN(C5CC(C(=O)O)C5)CC4)nc3)nc(-c3cc(Cl)cc(Cl)c3)c2)CC1` (centres unmarked) [Example 211, 3-(4-(5-((6-(3,5-dichlorophenyl)-4-((4-(((methylcarbamoyl)oxy)methyl)piperidin-1-yl)methyl)pyridin-2-yl)oxy)pyrimidin-2-yl)piperazin-1-yl)cyclobutanecarboxylic acid] are 10.1 and 25.1 nM.
For `CN1CCN(c2ccc(Oc3cc(CN4CCC(CC(=O)O)CC4)cc(-c4cc(Cl)cc(Cl)c4)n3)cn2)CC1` [Example 212, 2-(1-((2-(3,5-dichlorophenyl)-6-((6-(4-methylpiperazin-1-yl)pyridin-3-yl)oxy)pyridin-4-yl)methyl)piperidin-4-yl)acetic acid], in that order: 9 and 31.6 nM.
On to `CC(CC1CCN(Cc2cc(Oc3ccc(N4CCN(C)CC4)nc3)nc(-c3cc(Cl)cc(Cl)c3)c2)CC1)C(=O)O` (centres unmarked) [Example 213, 3-(1-((2-(3,5-dichlorophenyl)-6-((6-(4-methylpiperazin-1-yl)pyridin-3-yl)oxy)pyridin-4-yl)methyl)piperidin-4-yl)-2-methylpropanoic acid], for which, in assay [1], the “furin enzyme pIC50” value worked out at 8.9. Moreover, the EC50 in assay [2] is 25.1 nM.
For `CC(=O)NCC1CCN(Cc2cc(Oc3cnc(N4CCN(CCC(C)S(C)(=O)=O)CC4)nc3)nc(-c3cc(Cl)cc(Cl)c3)c2)CC1` (centres unmarked) [Example 214, N-((1-((2-(3,5-dichlorophenyl)-6-((2-(4-(3-(methylsulfonyl)butyl)piperazin-1-yl)pyrimidin-5-yl)oxy)pyridin-4-yl)methyl)piperidin-4-yl)methyl)acetamide], in assay [1], the “furin enzyme pIC50” value amounted to 9.1. The EC50 in assay [2] is 2.51 nM.

(Values after US11773078B2, “Furin inhibitors” (Glaxosmithkline Intellectual Property Development Limited, priority 2018, dated 2023).)
